Laboratory results: patent EP0837071A1, “Tripeptide antithrombotic agents” (ELI LILLY AND COMPANY, priority 1990, dated 1992)
Where two headings read alike, the source gives them in different places.

Assays:
bovine thrombin [1] = target: T1, bovine thrombin (Bos taurus, UniProt P00735); experiment: Plasma coagulation assay: thrombin time; format: biochemical; settings: plasma, bovine thrombin (2 NIH unit/ml)
T1 construct: 50 µl bovine thrombin (2 NIH unit/ml)
Protocol: (§1) The numerical values in the table are the concentrations of the test compounds (ng/ml) required to prolong coagulation by 2-fold in the three tests. The thrombin time evaluation was carried out in plasma and separately determined in a buffer system at […].
(§2) The data presented in Table 2 were obtained using a CoaScreener instrument from Tecan, Inc. in the assay protocols listed below. Prothrombin Time: 50 µl plasma 50 µl saline 7 µl test solution 50 µl thromboplastin (Dade) Thrombin Time: 50 µl plasma 50 µl saline 7 µl test compound 50 µl bovine thrombin (2 NIH unit/ml) In the Thrombin Time determined in pH 7.4 buffer fibrinogen was used instead of plasma. APTT: 50 µl plasma 50 µl Actin (Dade) 7 µl test solution 50 µl CaCl2 (0.01M).

thrombin = target: T2, thrombin (Bos taurus, UniProt P00735); experiment: Inhibition of thrombin amidase activity (chromogenic substrate N-benzoyl-D-phenylalanyl-L-valyl-L-arginyl-p-nitroanilide); format: biochemical
T2 construct: purchased
Protocol: The data in the table were obtained in an assay in which thrombin hydrolyzes the chromogenic substrate, N-benzoyl-D-phenylalanyl-L-valyl-L-arginyl-p-nitroanilide.
The assay was carried out in 50 µl buffer (0.03M Tris, 0.15M NaCl, pH 7.4) with 25 µl of thrombin solution (0.21 mg/ml of thrombostat powder in 0.06 M Tris, 0.3M NaCl, pH 7.4) and 150 µl of an aqueous solution of the chromogenic substrate at a concentration of 0.25 mg/ml. Solutions of test compound (25 µl) at various concentrations were added. […] Standard curves were constructed by plotting free thrombin concentration against hydrolysis rate. […] The amount of free inhibitor in each assay was calculated by subtracting the number of moles of bound thrombin from the number of moles of added inhibitor (test compound).
The Kass value is the hypothetical equilibrium constant for the reaction between thrombin and the test compouhnd (I). Thrombin + I ⇄ Thrombin - I [formula] Kass =([Thrombin I])/([ (Thrombin) x (I) ]) [formula]
Kass was calculated for a range of concentrations of test compounds and the mean value is reported in units of liter per mole.

[2] = system: Arterial Thrombosis in the Rat; experiment: FeCl3-induced arterial thrombosis in the carotid artery of the rat; format: in vivo; settings: infusion from 15 min before to 60 min after FeCl3 application, NA = Not active at 4 mg/kg/h or at 7 mg/kg/h, the highest doses tested
Protocol: The antithrombotic activity of representative compounds of the invention was determined in in vivo tests carried out in the rat. The test employed induced arterial thrombosis in the carotid artery of the rat and measured the infusion dose of test compound required to maintain blood flow for fifty minutes past the time of occlusion. The test was performed as follows.
Arterial thrombosis was induced in the rat by injury of the carotid artery. Topical application of a ferric chloride solution was used to injure the vessel. […] Animals were laid on a water blanket in which the circulated water was maintained at 37° C. The carotid artery was approached through a midline cervical incision. Careful blunt dissection was used to expose and isolate the vessel from the carotid sheath. A silk suture was pulled underneath the artery to lift the vessel to provide clearance to insert a thermocouple underneath it. […] The discs were cut to equal size using sharpened stainless steel tubing (3 mm i.d.) chucked in a drill press. A saturated disc was placed on each carotid artery above the thermocouple. The time between FeCl3 application and the time at which temperature decreased abruptly was recorded as time to occlusion (TTO) of the vessel. The average time required for both vessels to occlude was used to represent TTO for each animal.
Test compounds were dissolved in isotonic saline. A syringe pump was used to infuse drug solutions starting 15 min before FeCl3 application and continuing for 60 min after FeCl3 application. Dose-response curves were plotted to determine the relationship between the log10 of the infused doses and the TTO of the injured arteries.
The association between vessel occlusion and the abrupt temperature decrease was established by simultaneously recording the temperature and blood flow on the same recorder. A pulsed Doppler flow probe was placed around the carotid artery proximal to the thermocouple. […] Results were reported as percent change from initial baseline values (6 min before occlusion). The time at which vessel temperature decreased rapidly was arbitrarily established as zero and pre- and post-occlusion temperature and flow values were referenced from that point.

plasma [3] = experiment: Plasma coagulation assay: activated partial thromboplastin time (APTT); format: biochemical; settings: Actin (Dade), CaCl2
Protocol: as §1, §2

plasma [4] = experiment: Plasma coagulation assay: prothrombin time; format: biochemical; settings: thromboplastin (Dade)
Protocol: as §1, §2

bovine thrombin [5] = target: T1, bovine thrombin; experiment: Thrombin time in buffer (fibrinogen instead of plasma); format: biochemical; settings: buffer pH 7.5, fibrinogen instead of plasma
Protocol: as §1, §2

Compound: CC(C)(C)OC(=O)NC(C(=O)N1CCC[C@H]1C(=O)N[C@H](C=O)CCCNC(=N)N)c1cccc2ccccc12 (mixture of isomers) [N-Boc-DL-1-naphthylglycyl]
- Thrombin Time: concentration of test compounds required to prolong coagulation by 2-fold (bovine thrombin [1]): 320 ng/mL
- Kd (thrombin; apparent equilibrium (association) constant, mean over a range of concentrations, pH 7.4, acetate salts unless indicated otherwise, read-out: Thrombin Amidase Kass (converted)): 0.0552 µM
- ED50 (infusion dose required to maintain blood flow for 50 min) [2]: 5.5 mg/kg/h
- APTT: concentration of test compounds required to prolong coagulation by 2-fold (plasma [3]): 2272 ng/mL
- Prothrombin Time: concentration of test compounds required to prolong coagulation by 2-fold (plasma [4]): 1136 ng/mL
- Buffer (pH 7.5) Thrombin Time: concentration of test compounds required to prolong coagulation by 2-fold (bovine thrombin [5]): 112 ng/ml

Compound: CC(C)(C)OC(=O)N[C@@H](C(=O)N1CCC[C@H]1C(=O)N[C@H](C=O)CCCNC(=N)N)c1cccc2ccccc12 [N-Boc-D-1-naphthylglycyl, N-Boc-D-1-naphthylglycyl-Pro-Arg-H diacetate]
- Thrombin Time: concentration of test compounds required to prolong coagulation by 2-fold (bovine thrombin [1]): 230 ng/mL
- Kd (thrombin): 0.0192 µM
- ED50 (infusion dose required to maintain blood flow for 50 min) [2]: 6.4 mg/kg/h
- APTT: concentration of test compounds required to prolong coagulation by 2-fold (plasma [3]): 3100 ng/mL
- Prothrombin Time: concentration of test compounds required to prolong coagulation by 2-fold (plasma [4]): 1225 ng/mL
- Buffer (pH 7.5) Thrombin Time: concentration of test compounds required to prolong coagulation by 2-fold (bovine thrombin [5]): 105 ng/ml
